# According to patent US8067447B2, “Modulators of glucocorticoid receptor, AP-1, and/or NF-κB activity and use thereof” (Bristol-Myers Squibb Company, priority 2006, dated 2011):
# Read-outs that look alike come from different tables or passages of the source.
# Assays:
# [1] = target: T1, human full-length glucocorticoid receptor (Homo sapiens, UniProt P04150); experiment: Glucocorticoid Receptor Binding Assay (II), fluorescence polarization competitor kit (Fluormone GS1); conditions: cell lysate with recombinant human full-length GR, 1 nM Fluormone GS1, FP
# T1 construct: a cell lysate containing recombinantly expressed human full-length glucocorticoid receptor; purchased PanVera Co., Madison, Wis; P2816
# T1 sequence (P04150 1-777): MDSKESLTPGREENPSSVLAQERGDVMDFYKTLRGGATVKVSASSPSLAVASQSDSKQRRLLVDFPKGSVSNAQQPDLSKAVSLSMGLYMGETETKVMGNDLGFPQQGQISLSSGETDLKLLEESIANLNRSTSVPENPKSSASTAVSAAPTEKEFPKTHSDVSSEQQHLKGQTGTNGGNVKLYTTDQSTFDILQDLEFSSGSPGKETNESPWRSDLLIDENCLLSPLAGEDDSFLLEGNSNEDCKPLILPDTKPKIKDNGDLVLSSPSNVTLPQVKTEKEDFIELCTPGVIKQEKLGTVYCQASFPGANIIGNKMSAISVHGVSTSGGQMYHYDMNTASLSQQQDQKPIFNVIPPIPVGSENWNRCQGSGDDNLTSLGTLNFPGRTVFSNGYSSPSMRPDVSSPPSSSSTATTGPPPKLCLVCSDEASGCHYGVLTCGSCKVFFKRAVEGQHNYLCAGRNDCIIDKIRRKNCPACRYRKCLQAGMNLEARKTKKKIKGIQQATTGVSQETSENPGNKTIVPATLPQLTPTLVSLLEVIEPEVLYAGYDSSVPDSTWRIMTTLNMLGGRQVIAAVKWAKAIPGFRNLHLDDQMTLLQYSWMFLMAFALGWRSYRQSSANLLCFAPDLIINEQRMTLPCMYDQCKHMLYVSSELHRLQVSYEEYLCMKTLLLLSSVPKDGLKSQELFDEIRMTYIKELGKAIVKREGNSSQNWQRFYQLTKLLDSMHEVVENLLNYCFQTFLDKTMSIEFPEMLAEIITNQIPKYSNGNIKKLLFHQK
# Experimental: In order to measure the binding of compounds on the glucocorticoid receptor a commercially available kit was used (Glucocorticoid receptor competitor assay kit, PanVera Co., Madison, Wis., P2816). Briefly, a cell lysate containing recombinantly expressed human full-length glucocorticoid receptor was mixed with a fluorescently labeled glucocorticoid (1 nM Fluormone GS1) in the presence or absence of test compound. After one hour at room temperature, the fluorescence polarization (FP) of the samples were measured.
# [2] = system: AP-1 induced transcriptional activity; experiment: Cellular Transrepressional Assay (AP-1 luciferase reporter in A549 cells, PMA-activated); type: cell-based; conditions: A549 cells with 7x AP-1 luciferase reporter, 10 ng/ml PMA, read-out: AP-1 (EC50, nM) (Cellular Transrepression Assay)
# Outline: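 Test molecules spanning 0.1 nM to 40 μM were co-incubated 7 h with 10 ng/ml PMA in A549 cells stably carrying a 7× AP-1-driven luciferase plasmid. Repression, as % reduction of PMA-alone luminescence measured 10 min after reagent addition, was curve-fitted to give EC50s.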
Compound,Ki [1] [nM],"EC50 ([2]; Homo sapiens, A549, 7 h) [nM]",EC50 ([2]; 7 hours) [nM]
"CC(C)(C(=O)Nc1nncs1)C(c1ccccc1)c1ccc2c(cnn2-c2ccc(C(=O)O)cc2)c1 (stereo not drawn) [Example 89, 4-(5-(3-(1,3,4-thiadiazol-2-ylamino)-2,2-dimethyl-3-oxo-1-phenylpropyl)-1H-indazol-1-yl)benzoic acid]",27,> 10000,–
"CC(C)(C(=O)Nc1nncs1)C(Cc1ccccc1)c1ccc2c(cnn2-c2ccc(F)cc2)c1 (stereo not drawn) [Example 123, 3-(1-(4-fluorophenyl)-1H-indazol-5-yl)-2,2-dimethyl-4-phenyl-N-(1,3,4-thiadiazol-2-yl)butanamide]",1.1,705,–
"CC(C)(C(=O)NC1CCCC1O)C(Cc1ccccc1)c1ccc2c(cnn2-c2ccc(F)cc2)c1 (single isomer, unassigned) [Example 124-isomerB]",2.3,–,> 10000
"O=C(Nc1nncs1)C(c1ccccc1)C(c1ccccc1)c1ccc2[nH]ncc2c1 (single isomer, unassigned) [152-diast B, 3-(1H-Indazol-5-yl)-2,3-diphenyl-N-(1,3,4-thiadiazol-2-yl)propanamide]",1150,–,5000
"Cn1cnc(NC(=O)CC(c2ccccc2)c2ccc3c(cnn3-c3ccc(F)cc3)c2)n1 (stereo not drawn) [Example 137, 3-(1-(4-Fluorophenyl)-1H-indazol-5-yl)-N-(1-methyl-1H-1,2,4-triazol-3-yl)-3-phenylpropanamide]",11,833,–
"CC(C)C(c1ccc2c(cnn2-c2ccc(F)cc2)c1)C(C)(C)C(=O)Nc1nncs1 (stereo not drawn) [Example 48, 3-(1-(4-fluorophenyl)-1H-indazol-5-yl)-2,2,4-trimethyl-N-(1,3,4-thiadiazol-2-yl)pentanamide]",2.4,81,–
"Cc1ccccc1C(c1ccc2c(cnn2-c2ccc(F)cc2)c1)C(C)(C)C(=O)Nc1nccs1 (stereo not drawn) [Example 40, 3-(1-(4-fluorophenyl)-1H-indazol-5-yl)-2,2-dimethyl-N-(thiazol-2-yl)-3-o-tolylpropanamide]",1.6,2.1,–
"CC(C)(C(=O)NC1CCOCC1)C(Cc1ccccc1)c1ccc2c(cnn2-c2ccc(F)cc2)c1 (stereo not drawn) [Example 132, 3-(1-(4-fluorophenyl)-1H-indazol-5-yl)-2,2-dimethyl-4-phenyl-N-(tetrahydro-2H-pyran-4-yl)butanamide]",7.8,> 10000,–
"CC(C)(C(=O)Nc1nncs1)[C@@H](c1ccccc1)c1ccc2c(cnn2-c2ccc(F)cc2C#N)c1 [Example 97, (3S)-3-(1-(2-cyano-4-fluorophenyl)-1H-indazol-5-yl)-2,2-dimethyl-3-phenyl-N-(1,3,4-thiadiazol-2-yl)propanamide]",5.5,> 2500,–
CC(C)(C(=O)Nc1nccs1)C(c1cccc(F)c1)c1ccc2c(cnn2-c2ccc(F)cc2)c1 (stereo not drawn) [Example 43],2.9,2.4,–
"CC(C)(CC(=O)Nc1nncs1)c1ccc2c(cnn2-c2ccc(F)cc2)c1 [Example 122, 3-(1-(4-fluorophenyl)-1H-indazol-5-yl)-3-methyl-N-(1,3,4-thiadiazol-2-yl)butanamide]",2.3,> 10000,–
"Cc1ccc(CC(c2ccc3c(cnn3-c3ccc(F)cc3)c2)C(C)(C)C(=O)Nc2nccs2)cc1 (stereo not drawn) [Example 126, 3-(1-(4-fluorophenyl)-1H-indazol-5-yl)-2,2-dimethyl-N-(thiazol-2-yl)-4-p-tolylbutanamide]",6.8,> 10000,–
"CC(C)CC1(c2ccc3c(cnn3-c3ccc(F)cc3)c2)CC1C(=O)Nc1nccs1 (mixture of isomers) [Example 100, Cis and trans-2-(1-(4-fluorophenyl)-1H-indazol-5-yl)-2-isobutyl-N-(thiazol-2-yl)cyclopropanecarboxamide]",102,290,–
"CC(C)(C(=O)NC1CCCC1O)C(Cc1ccccc1)c1ccc2c(cnn2-c2ccc(F)cc2)c1 (single isomer, unassigned) [Example 124-isomerA]",7.5,–,> 10000
"Cc1ccc(C(c2ccc3c(cnn3-c3ccc(F)cc3)c2)C(C)(C)C(=O)Nc2nccs2)cc1 (stereo not drawn) [Example 42, 3-(1-(4-fluorophenyl)-1H-indazol-5-yl)-2,2-dimethyl-N-(thiazol-2-yl)-3-p-tolylpropanamide]",1.9,3.9,–
"Cc1cc2c(cnn2-c2ccc(F)cc2)cc1CC(C)C(=O)Nc1nncs1 (stereo not drawn) [Example 106, 3-(1-(4-Fluorophenyl)-6-methyl-1H-indazol-5-yl)-2-methyl-N-(1,3,4-thiadiazol-2-yl)propanamide]",1,160,–

# Now from value to compound:
Ki [1] [nM],"EC50 ([2]; Homo sapiens, A549, 7 h) [nM]",EC50 ([2]; 7 hours) [nM],Compound
825,2500,–,"CN(C)C(=O)c1cc(F)ccc1-n1ncc2cc([C@H](c3ccccc3)C(C)(C)C(=O)Nc3nncs3)ccc21 [Example 158, 2-(5-((S)-3-(1,3,4-Thiadiazol-2-ylamino)-2,2-dimethyl-3-oxo-1-phenylpropyl)-1H-indazol-1-yl)-5-fluoro-N,N-dimethylbenzamide]"
1.5,2,–,"O=C(Nc1nncs1)C(Cc1ccccc1)C(c1ccccc1)c1ccc2c(cnn2-c2ccc(F)cc2)c1 (stereo not drawn) [Example 146, 2-benzyl-3-(1-(4-fluorophenyl)-1H-indazol-5-yl)-3-phenyl-N-(1,3,4-thiadiazol-2-yl)propanamide]"
1.1,–,5,"O=C(Nc1nncs1)C(c1ccccc1)C(c1ccccc1)c1ccc2c(cnn2-c2ccc(F)cc2)c1 (single isomer, unassigned) [Example 145-isomerB, 3-(1-(4-fluorophenyl)-1H-indazol-5-yl)-2,3-diphenyl-N-(1,3,4-thiadiazol-2-yl)propanamide]"
2,2,–,"CC(C)C(C(=O)Nc1nncs1)C(c1ccccc1)c1ccc2c(cnn2-c2ccc(F)cc2)c1 (stereo not drawn) [Example 144, 2-((1-(4-fluorophenyl)-1H-indazol-5-yl)(phenyl)methyl)-3-methyl-N-(1,3,4-thiadiazol-2-yl)butanamide]"
1.6,4,–,"CC(C)(C(=O)Nc1nncs1)C(OCc1ccccc1)c1ccc2c(cnn2-c2ccc(F)cc2)c1 (stereo not drawn) [Example 140, 3-(Benzyloxy)-3-(1-(4-fluorophenyl)-1H-indazol-5-yl)-2,2-dimethyl-N-(1,3,4-thiadiazol-2-yl)propanamide]"
6.4,6,–,"O=C(Nc1nncs1)C(C1CCCCC1)C(c1ccccc1)c1ccc2c(cnn2-c2ccc(F)cc2)c1 (stereo not drawn) [Example 148, 2-cyclohexyl-3-(1-(4-fluorophenyl)-1H-indazol-5-yl)-3-phenyl-N-(1,3,4-thiadiazol-2-yl)propanamide]"
1.1,0.55,–,"CCC(C(=O)Nc1nncs1)C(c1ccccc1)c1ccc2c(cnn2-c2ccc(F)cc2)c1 (stereo not drawn) [Example 142, 2-((1-(4-Fluorophenyl)-1H-indazol-5-yl)(phenyl)methyl)-N-(1,3,4-thiadiazol-2-yl)butanamide]"
4.3,1770,–,"CC(CO)(C(=O)Nc1nncs1)C(c1ccccc1)c1ccc2c(cnn2-c2ccc(F)cc2)c1 (stereo not drawn) [Example 155, 3-(1-(4-Fluorophenyl)-1H-indazol-5-yl)-2-(hydroxymethyl)-2-methyl-3-phenyl-N-(1,3,4-thiadiazol-2-yl)propanamide]"
4.3,27,–,"COC(=O)c1ccc(C(c2ccc3c(cnn3-c3ccc(F)cc3)c2)C(C)C(=O)Nc2nncs2)cc1 (stereo not drawn) [Example 153, Methyl 4-(3-(1,3,4-thiadiazol-2-ylamino)-1-(1-(4-fluorophenyl)-1H-indazol-5-yl)-2-methyl-3-oxopropyl)benzoate]"
555,–,5000,"O=C(Nc1nncs1)C(c1ccccc1)C(c1ccccc1)c1ccc2c(cnn2-c2ccc(F)cc2)c1 (single isomer, unassigned) [Example 145-isomerC, 3-(1-(4-fluorophenyl)-1H-indazol-5-yl)-2,3-diphenyl-N-(1,3,4-thiadiazol-2-yl)propanamide]"
4.7,130,–,"CCC(CC)(C(=O)Nc1nncs1)C(c1ccccc1)c1ccc2c(cnn2-c2ccc(F)cc2)c1 (stereo not drawn) [Example 149, 2-ethyl-2-((1-(4-fluorophenyl)-1H-indazol-5-yl)(phenyl)methyl)-N-(1,3,4-thiadiazol-2-yl)butanamide]"
